Earlier results, collected in US20030194514A1 (priority 2002, published 2003).

Tests used:
[1] = diluent level of 15%; cited from earlier work
[2] = per Brit. 1,132,417; cited from earlier work
[3] = especially at a dilution level of 20-30%; cited from earlier work

Row | Compound | Judgement as stabilizer for propargyl bromide by impact tests [1] | Effectiveness of the solvent in stabilizing propargyl bromide [2] | Judgement as stabilizer in confinement tests [3]
1 | c1ccccc1 [benzene] | poor stabilizers |  | 
2 | CC(C)OC(C)C [diisopropyl ether] | appeared promising |  | 
3 | xylene |  | effective | 
4 | Cc1ccccc1 [toluene] |  |  | material of choice
5 | CCO [ethanol] |  | effective | 
6 | C1CCOC1 [tetrahydrofuran] |  | effective | 
7 | ClC(Cl)Cl [chloroform] | poor stabilizers | ineffective | 
8 | CCOCC [diethyl ether] | appeared promising |  | 
9 | CCCCCC [hexane] | poor stabilizers | ineffective | 
10 | C1COCCO1 [dioxane] |  | effective | 
11 | NC=O [formamide] | poor stabilizers | ineffective | 
